Data reported in ChEMBL document CHEMBL4002629, “Design, synthesis and biological evaluation of novel 3-substituted 4-anilino-coumarin derivatives as antitumor agents” (Bioorg Med Chem Lett, 2017).
Active and inactive are the calls of the source. The calls are words filed in the database; no cut-off is given here.

Experiments:
MCF7 [1] = assay: Antiproliferative activity against human MCF7 cells after 48 hrs by MTT assay; format: functional, cell-based; details: MCF7, 48 h
HepG2 = assay: Antiproliferative activity against human HepG2 cells after 48 hrs by MTT assay; format: functional, cell-based; details: HepG2, 48 h
HCT-116 = assay: Antiproliferative activity against human HCT116 cells after 48 hrs by MTT assay; format: functional, cell-based; details: HCT-116, 48 h
PANC-1 = assay: Antiproliferative activity against human PANC1 cells after 48 hrs by MTT assay; format: functional, cell-based; details: PANC-1, 48 h
MCF7 [2] = assay: Cell cycle arrest in human MCF7 cells assessed as accumulation at G0/G1 phase at 5 uM after 48 hrs by propidium iodide staining-based flow cytometric method (reference value: 55.56 +/- 0.91%); format: functional
MCF7 [3] = assay: Cell cycle arrest in human MCF7 cells assessed as accumulation at G2/M phase at 5 uM after 48 hrs by propidium iodide staining-based flow cytometric method (reference value: 24.16 +/- 2.29%); format: functional
MCF7 [4] = assay: Cell cycle arrest in human MCF7 cells assessed as accumulation at G0/G1 phase at 10 uM after 48 hrs by propidium iodide staining-based flow cytometric method (reference value: 55.56 +/- 0.91%); format: functional
MCF7 [5] = assay: Cell cycle arrest in human MCF7 cells assessed as accumulation at G2/M phase at 10 uM after 48 hrs by propidium iodide staining-based flow cytometric method (reference value: 24.16 +/- 2.29%); format: functional
MCF7 [6] = assay: Cell cycle arrest in human MCF7 cells assessed as accumulation at G0/G1 phase at 15 uM after 48 hrs by propidium iodide staining-based flow cytometric method (reference value: 55.56 +/- 0.91%); format: functional
MCF7 [7] = assay: Cell cycle arrest in human MCF7 cells assessed as accumulation at G2/M phase at 15 uM after 48 hrs by propidium iodide staining-based flow cytometric method (reference value: 24.16 +/- 2.29%); format: functional
MCF7 [8] = assay: Induction of apoptosis in human MCF7 cells assessed as cell distortion at 5 to 15 uM after 24 hrs by Hoechst 33258 staining-based inverted microscopy; format: functional
MCF7 [9] = assay: Induction of apoptosis in human MCF7 cells assessed as membrane blebbing at 5 to 15 uM after 24 hrs by Hoechst 33258 staining-based inverted microscopy; format: functional, cell-based
MCF7 [10] = assay: Induction of apoptosis in human MCF7 cells assessed as membrane shrinkage at 5 to 15 uM after 24 hrs by Hoechst 33258 staining-based inverted microscopy; format: functional, cell-based
MCF7 [11] = assay: Induction of apoptosis in human MCF7 cells assessed as cell rounding up at 5 to 15 uM after 24 hrs by Hoechst 33258 staining-based inverted microscopy; format: functional
MCF7 [12] = assay: Induction of apoptosis in human MCF7 cells assessed as early apoptotic cells at 5 uM after 48 hrs by annexin V-propidium iodide staining-based flow cytometry (reference value: 3.2%); format: functional
MCF7 [13] = assay: Induction of apoptosis in human MCF7 cells assessed as late apoptotic cells at 5 uM after 48 hrs by annexin V-propidium iodide staining-based flow cytometry (reference value: 0.1%); format: functional
MCF7 [14] = assay: Induction of apoptosis in human MCF7 cells assessed as necrotic cells at 5 uM after 48 hrs by annexin V-propidium iodide staining-based flow cytometry (reference value: 0.3%); format: functional
MCF7 [15] = assay: Induction of apoptosis in human MCF7 cells assessed as viable cells at 5 uM after 48 hrs by annexin V-propidium iodide staining-based flow cytometry (reference value: 96.3%); format: functional; details: MCF7, 48 h, read-out: Activity
MCF7 [16] = assay: Induction of apoptosis in human MCF7 cells assessed as early apoptotic cells at 10 uM after 48 hrs by annexin V-propidium iodide staining-based flow cytometry (reference value: 3.2%); format: functional
MCF7 [17] = assay: Induction of apoptosis in human MCF7 cells assessed as late apoptotic cells at 10 uM after 48 hrs by annexin V-propidium iodide staining-based flow cytometry (reference value: 0.1%); format: functional
MCF7 [18] = assay: Induction of apoptosis in human MCF7 cells assessed as necrotic cells at 10 uM after 48 hrs by annexin V-propidium iodide staining-based flow cytometry (reference value: 0.3%); format: functional
MCF7 [19] = assay: Induction of apoptosis in human MCF7 cells assessed as viable cells at 10 uM after 48 hrs by annexin V-propidium iodide staining-based flow cytometry (reference value: 96.3%); format: functional; details: MCF7, 48 h, read-out: Activity
MCF7 [20] = assay: Induction of apoptosis in human MCF7 cells assessed as early apoptotic cells at 15 uM after 48 hrs by annexin V-propidium iodide staining-based flow cytometry (reference value: 3.2%); format: functional
MCF7 [21] = assay: Induction of apoptosis in human MCF7 cells assessed as late apoptotic cells at 15 uM after 48 hrs by annexin V-propidium iodide staining-based flow cytometry (reference value: 0.1%); format: functional
MCF7 [22] = assay: Induction of apoptosis in human MCF7 cells assessed as necrotic cells at 15 uM after 48 hrs by annexin V-propidium iodide staining-based flow cytometry (reference value: 0.3%); format: functional
MCF7 [23] = assay: Induction of apoptosis in human MCF7 cells assessed as viable cells at 15 uM after 48 hrs by annexin V-propidium iodide staining-based flow cytometry (reference value: 96.3%); format: functional; details: MCF7, 48 h, read-out: Activity
HUVEC = assay: Antiproliferative activity against HUVEC after 48 hrs by MTT assay; format: cell-based; details: Homo sapiens
[24] = Selectivity index, ratio of IC50 for HUVEC to IC50 for human MCF7 cells
[25] = Selectivity index, ratio of IC50 for HUVEC to IC50 for human HepG2 cells
[26] = Selectivity index, ratio of IC50 for HUVEC to IC50 for human HCT116 cells
[27] = Selectivity index, ratio of IC50 for HUVEC to IC50 for human PANC1 cells
MCF7 [28] = assay: Induction of apoptosis in human MCF7 cells after 48 hrs by annexin V-propidium iodide staining-based flow cytometry; format: functional, cell-based

COc1ccc(-c2c(Nc3ccc(C)c(O)c3)c3ccccc3oc2=O)cc1
IC50 (MCF7 [1]): 12.1 µM
IC50 (HepG2): 10.2 µM
IC50 (HCT-116): 12.3 µM
IC50 (PANC-1): 9.75 µM

COc1ccc(-c2c(Nc3ccc(NC(C)=O)cc3)c3ccc(O)cc3oc2=O)cc1
IC50 (MCF7 [1]): > 100 µM
IC50 (HepG2): > 100 µM

COc1ccc(-c2c(Nc3ccc(C)cc3)c3ccc(O)cc3oc2=O)cc1
IC50 (MCF7 [1]): 85.5 µM
IC50 (HepG2): 88.3 µM

COc1ccc(-c2c(Nc3ccc(C)c(O)c3)c3ccc(O)cc3oc2=O)cc1
IC50 (MCF7 [1]): > 100 µM
IC50 (HepG2): > 75.3 µM

COc1ccc(-c2c(Nc3cccc(C(F)(F)F)c3)c3ccc(OC)cc3oc2=O)cc1
IC50 (MCF7 [1]): 36.2 µM
IC50 (HepG2): 57.2 µM
IC50 (HCT-116): 41.2 µM
IC50 (PANC-1): 39.5 µM

CCOc1ccc(Nc2c(-c3ccc(OC)cc3)c(=O)oc3cc(O)ccc23)cc1
IC50 (MCF7 [1]): 32.5 µM
IC50 (HepG2): 36.5 µM
IC50 (HCT-116): 46.1 µM
IC50 (PANC-1): 43.6 µM

COc1ccc(-c2c(Nc3cc(OC)c(OC)c(OC)c3)c3ccccc3oc2=O)cc1
IC50 (MCF7 [1]): 82.3 µM
IC50 (HepG2): 77.3 µM
IC50 (HCT-116): 63.5 µM
IC50 (PANC-1): 77.6 µM

COc1ccc2c(Nc3ccc(F)cc3)c(C(=O)C(F)(F)F)c(=O)oc2c1
IC50 (MCF7 [1]): 9.74 µM
IC50 (HepG2): 8.26 µM
IC50 (HCT-116): 11.7 µM
IC50 (PANC-1): 12.2 µM

O=c1[nH]cc(F)c(=O)[nH]1 [FLUOROURACIL]
IC50 (HCT-116): 38.3 µM
IC50 (PANC-1): 47.8 µM

COc1ccc(-c2c(Nc3cccc(C(F)(F)F)c3)c3ccccc3oc2=O)cc1
IC50 (MCF7 [1]): 21.6 µM
IC50 (HepG2): 66.4 µM
IC50 (HCT-116): 55.7 µM
IC50 (PANC-1): 49.1 µM

COc1ccc(-c2c(Nc3ccc(C)cc3)c3ccccc3oc2=O)cc1
IC50 (MCF7 [1]): 65.3 µM
IC50 (HepG2): 59.4 µM
IC50 (HCT-116): 64.8 µM
IC50 (PANC-1): 66.1 µM

COc1ccc2oc(=O)c(C(=O)C(F)(F)F)c(Nc3ccc4c(c3)OCO4)c2c1
IC50 (MCF7 [1]): 16.6 µM
IC50 (HepG2): 5.45 µM
IC50 (HCT-116): 4.42 µM
IC50 (PANC-1): 5.16 µM
Activity (MCF7 [2]): 45.12%
Activity (MCF7 [3]): 26.13%
Activity (MCF7 [4]): 30.15%
Activity (MCF7 [5]): 41.93%
Activity (MCF7 [6]): 21.93%
Activity (MCF7 [7]): 63.06%
Activity (MCF7 [8]): Active
Activity (MCF7 [9]): Active
Activity (MCF7 [10]): Active
Activity (MCF7 [11]): Active
Activity (MCF7 [12]): 16.3%
Activity (MCF7 [13]): 1.3%
Activity (MCF7 [14]): 1.1%
viability at 5 µM (MCF7 [15]): 81.3%
Activity (MCF7 [16]): 20.2%
Activity (MCF7 [17]): 1.9%
Activity (MCF7 [18]): 1.6%
viability at 10 µM (MCF7 [19]): 76.3%
Activity (MCF7 [20]): 32.1%
Activity (MCF7 [21]): 4.7%
Activity (MCF7 [22]): 3.3%
viability at 15 µM (MCF7 [23]): 59.9%
IC50 (HUVEC): 26.3 µM
Ratio IC50 [24]: 1.59
Ratio IC50 [25]: 4.82
Ratio IC50 [26]: 5.94
Ratio IC50 [27]: 5.09
Activity (MCF7 [28]): Dose-dependent effect

COc1ccc(Nc2c(C(=O)C(F)(F)F)c(=O)oc3cc(OC)ccc23)cc1
IC50 (MCF7 [1]): 55.7 µM
IC50 (HepG2): 38.4 µM
IC50 (HCT-116): 61.2 µM
IC50 (PANC-1): 47.5 µM

COc1ccc(-c2c(Nc3ccc(F)cc3)c3ccc(OC)cc3oc2=O)cc1
IC50 (MCF7 [1]): > 100 µM
IC50 (HepG2): > 100 µM

COc1ccc(Nc2c(-c3ccc(OC)cc3)c(=O)oc3ccccc23)cc1
IC50 (MCF7 [1]): 34.6 µM
IC50 (HepG2): 35.2 µM
IC50 (HCT-116): 36.6 µM
IC50 (PANC-1): 37.5 µM

CCOc1ccc(Nc2c(-c3ccc(OC)cc3)c(=O)oc3ccccc23)cc1
IC50 (MCF7 [1]): 30.7 µM
IC50 (HepG2): 31.3 µM
IC50 (HCT-116): 29.5 µM
IC50 (PANC-1): 32.9 µM

COc1ccc(-c2c(Nc3ccc(F)cc3)c3ccccc3oc2=O)cc1
IC50 (MCF7 [1]): 38.5 µM
IC50 (HepG2): 35.5 µM
IC50 (HCT-116): 39.4 µM
IC50 (PANC-1): 32 µM

COc1ccc(-c2c(Nc3ccc(C)cc3)c3ccc(OC)cc3oc2=O)cc1
IC50 (MCF7 [1]): 66.9 µM
IC50 (HepG2): 74.4 µM
IC50 (HCT-116): 82.4 µM
IC50 (PANC-1): 76.5 µM

COc1ccc(-c2c(Nc3cc(OC)c(OC)c(OC)c3)c3ccc(OC)cc3oc2=O)cc1
IC50 (MCF7 [1]): 89.5 µM
IC50 (HepG2): 84.3 µM
